What was measured:
BLVRB [1] = molecular target: T1, BLVRB (Homo sapiens, UniProt P30043); assay: Isothermal titration calorimetry (ITC) of compound binding to BLVRB; settings: for TΔS / ΔG / ΔH (enthalpy of the reaction) / N (stoichiometry) / contribution from entropy, of the total binding energy: 25 °C; for N (stoichiometry): single-site binding model; for Kd: read-out: KD (dissociation constant), 25 °C
T1 sequence (P30043 1-206): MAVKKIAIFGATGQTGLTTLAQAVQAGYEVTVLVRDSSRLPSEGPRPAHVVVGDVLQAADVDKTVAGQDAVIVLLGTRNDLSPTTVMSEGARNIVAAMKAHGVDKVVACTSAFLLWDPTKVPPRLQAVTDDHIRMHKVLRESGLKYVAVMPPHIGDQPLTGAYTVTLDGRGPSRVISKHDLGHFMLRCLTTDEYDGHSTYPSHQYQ

BLVRB [2] = molecular target: T1, BLVRB; assay: Dynamic light scattering (DLS) of BLVRB with inhibitor; settings: molar ratio 0, 1, 5, 10 compound/BLVRB
Source text: FIGS. 2A and 2B show DLS results of BLVRB depending on the concentration of phloxine B (FIG. 2A) and erythorosin B (FIG. 2B). Molar ratio of the sample is 0, 1, 5, 10 [erythrosin B or phloxine B/BLVRB]. The horizontal axis represents the diameter of each drug on a logarithmic scale. The vertical axis represents the relative intensity of the signal.
(§1) The inhibition mechanism of these two compounds was investigated in physiological environment by NMR.

BLVRB [3] = molecular target: T1, BLVRB; assay: NMR titration (HSQC) experiments with 15N-labeled BLVRB; type: binding; settings: half-holo BLVRB 0.3 mM, ratio up to 1:10
Protocol: Ratio 1:0, 1:0.6, 1:1, 1:10 [Half-holo form of BLVRB (0.3 mM):phloxine B and erythrosin B].
as §1
Protein-based NMR spectroscopy is one of the most well-suited methods to identify intermolecular interactions including small molecule and protein interactions. Further, protein-based NMR methods provide information on binding sites, which is of prime interest for optimizing small molecules. Therefore, HSQC experiments of ^15N-labeled BLVRB were performed by titrating increasing amounts of the subject compounds to monitor the chemical shift changes upon the binding of the compounds identified in the enzyme activity assay. In particular, Ser111 was previously identified as a key residue involved in the catalytic mechanism of BLVRB. […] Using the assignment, the chemical shift perturbations (CSPs) of BLVRB by each drug were extracted from the spectra and the binding site of each drug was identified based on the CSPs.
Half-holo form of BLVRB (with NADP^+) was used for NMR experiments. All the subject compounds were dissolved in DMSO-d6. NMR titration and 1D experiments were operated at a ^1H frequency of 800 MHz using a Bruker Avance spectrometer. All experiments were performed at 298 K and 5 mm diameter NMR tubes with a sample volume 500 μL were used.

rats = settings: chronic administration; cited from earlier work

SMILES	TΔS (BLVRB [1]) [kcal/mol]	ΔG (BLVRB [1]) [kcal/mol]	ΔH (enthalpy of the reaction) (BLVRB [1]) [kcal/mol]	N (stoichiometry) (BLVRB [1])	Kd (BLVRB [1]) [nM]	contribution from entropy, of the total binding energy (BLVRB [1]) [%]	size of BLVRB-inhibitor complex (BLVRB [2])	multimerization of BLVRB upon addition of compound (BLVRB [3])	thyroid tumor promotion (rats)
O=C(O)c1cc(/N=N/c2ccc(S(=O)(=O)Nc3ccccn3)cc2)ccc1O [Compound of formula 1]	-0.76 ± 0.07	-8.67 ± 0.05	-9.43 ± 0.05	0.99	440 ± 40				
CC1(C)CCC(C)(C)c2cc(NC(=O)c3ccc(C(=O)O)cc3)ccc21 [Compound of formula 3]	3.50 ± 0.10	-7.99 ± 0.08	-4.49 ± 0.06	1.07	1380 ± 180	44			
O=C(O)c1cccc(-c2noc(-c3ccccc3F)n2)c1 [Compound of formula 4]	-1.83 ± 0.09	-9.13 ± 0.07	-10.96 ± 0.06	1.02	200 ± 20				
Cc1nc(-c2ccc(OCC(C)C)c(C#N)c2)sc1C(=O)O [Compound of formula 5]	2.14 ± 0.11	-7.90 ± 0.08	-5.75 ± 0.08	1.01	1630 ± 210				
O=C(O)c1ccc(-n2nc(-c3ccccc3O)nc2-c2ccccc2O)cc1 [Compound of formula 6]	0.55 ± 0.12	-7.87 ± 0.07	-7.32 ± 0.10	1.00	1710 ± 210				
Cc1c(Nc2ncccc2C(=O)O)cccc1C(F)(F)F [Compound of formula 7]	0.41 ± 0.07	-8.95 ± 0.06	-8.54 ± 0.04	0.99	270 ± 30				
O=C(O)c1cc2ccccc2c(Cc2c(O)c(C(=O)O)cc3ccccc23)c1O [Compound of formula 8]	1.08 ± 0.17	-7.84 ± 0.10	-6.76 ± 0.13	1.01	1800 ± 310				
O=C(O)c1ccccc1-c1c2cc(I)c(=O)c(I)c-2oc2c(I)c(O)c(I)cc12 [Erythrosin B, reference compound]	2.91 ± 0.13	-9.28 ± 0.11	-6.38 ± 0.06	1.04	160 ± 30	31	increase in the size of the BLVRB-inhibitor complex	induce multimerization of BLVRB	promote thyroid tumors in rats
O=C([O-])c1c(Cl)c(Cl)c(Cl)c(Cl)c1-c1c2cc(Br)c(=O)c(Br)c-2oc2c(Br)c([O-])c(Br)cc12.[Na+].[Na+] [Phloxine B, reference compound]	4.12 ± 0.12	-8.00 ± 0.10	-3.88 ± 0.06	0.99	1360 ± 220		increase in the size of the BLVRB-inhibitor complex	induce multimerization of BLVRB	
